“Also recorded” adds a separate entry of the source. Non-standard residues stand in square brackets, D forms with d. Residues, ends and D or L forms follow the SMILES beside them. Dmt = Cc1cc(O)cc(C)c1C[C@H](N)C(=O)O
Tests used:
[1] = test system: isolated mitochondria; assay: Cytochrome c release from isolated mitochondria (ELISA); type: biochemical, mouse; conditions: Ca2+ overload
Protocol: (§1) MPT pore opening results in mitochondrial swelling. We examined the effects of [Dmt^1]DALDA on mitochondrial swelling by measuring reduction in absorbance at 540 nm (A540). The mitochondrial suspension was then centrifuged and cytochrome c in the mitochondrial pellet and supernatant determined by a commercially-available ELISA kit.
(§2) The methods for study are as described above for SS-02. In this example, mitochondrial swelling was measured using light scattering monitored at 570 nm.

[2] = test system: isolated perfused guinea pig heart; assay: Ischemia-reperfusion myocardial stunning in isolated perfused heart (Langendorff); conditions: 1 nM
Protocol: Guinea pig hearts were rapidly isolated, and the aorta was cannulated in situ and perfused in a retrograde fashion with an oxygenated Krebs-Henseleit solution (pH 7.4) at 34° C. The heart was then excised, mounted on a modified Langendorff perfusion apparatus, and perfused at constant pressure (40 cm H2O). Contractile force was measured with a small hook inserted into the apex of the left ventricle and the silk ligature tightly connected to a force-displacement transducer. Coronary flow was measured by timed collection of pulmonary artery effluent.
Reperfusion was carried out with the same solution used prior to ischemia.

[3] = test system: isolated mitochondria; assay: Mitochondrial swelling (absorbance 540 nm or light scattering 570 nm); type: biochemical, mouse; conditions: 50 μM peptide, light scattering at 570 nm
Protocol: as §1, §2

[4] = test system: N2A cells; assay: tBHP-induced mitochondrial depolarization (TMRM, confocal); type: cell-based; conditions: 50 μM tBHP, 1 nM peptide, 6 h
Protocol: FIG. 7. SS-31 protected against tBHP-induced mitochondrial depolarization and viability. N2A cells were plated in glass bottom dishes and treated with (A) control, or with (B) 50 μM tBHP, alone or with (e) 1 nM SS-31, for 6 hours. Cells were loaded with TMRM (20 nM) and imaged by confocal laser scanning microscopy using ex/em of 552/570 nm.
To investigate whether SS-31 prevents mitochondria) depolarization caused by tBHP, N2A cells were treated with 50 μM tBHP for 6 h.

[5] = test system: Sprague-Dawley rats; assay: Myocardial infarction/reperfusion, area at risk and area of infarction; type: in vivo, rat; conditions: 3 mg/kg IP 30 min before ligation and 5 min before reperfusion; 1 h ischemia, 1 h reperfusion
Protocol: (§3) Adult male […] rats (F344 strain, National Institute of Aging, maintained by Harian Sprague-Dawley Inc.), weighting between 285 and 425 gm, were used. […]
After anesthesia with ketamine (90 mg/kg IP) and xylazine (4 mg/kg IP), a tracheotomy was performed, and the rat was intubated with polyethylene tube and ventilated (Harvard Rodent Ventilator model 683) with room air and a tidal volume of 0.65 ml/100 gm of body weight at 90 breaths per minute. […] Peripheral limb electrodes were inserted subcutaneously and electrocardiogram was monitored throughout the procedure. […]
At the end of reperfusion, the left coronary artery was briefly re-occluded and Evans blue dye solution (2 ml of 2%, Sigma) was slowly injected into the jugular vein to distinguish the perfused area (blue staining) from the area at risk (no staining). […] After a 14-day formalin immersion, the slices were scanned again and all scanned areas were quantified with NIH Imagesoftware. […]

[6] = test system: Sprague-Dawley rats; assay: Assessment of arrhythmias in infarction/reperfusion; type: in vivo, rat; conditions: 3 mg/kg IP twice, entire study period
Protocol: as §3
An ECG was recorded continuously from a standard lead II (AC AMP 700) inserted into the limbs of all rats. […] The cardiac arrhythmias were monitored and assessed in accordance with the Lambeth Convention. […] A validated score was used to quantify the severity of cardiac arrhythmias. […]
All values are expressed as mean±standard error of mean (S.E.M.). […] Differences among groups in body weight, heart rate, arrhythmia, area at risk as a percentage of the left ventricle, and area of infarction as a percentage of the area at risk were analyzed using ANOVA. If significant differences were detected, comparisons between the control group and the 2 treatment groups were conducted using the Mann-Whitney U-test. […]

[7] = test system: mitochondrial permeability transition (MPT) in isolated mitochondria; assay: Mitochondrial membrane potential and MPT measured with TMRM; type: biochemical, mouse; conditions: pretreatment 10 μM
Protocol: In addition to having no direct effect on mitochondrial potential, [Dmt^1]DALDA was able to protect against MPT induced by Ca^2+ overload.
3-Nitropropionic acid (3NP) is an irreversible inhibitor of succinate dehydrogenase in complex II of the electron transport chain. Addition of 3NP (1 mM) to isolated mitochondria caused dissipation of mitochondrial potential and onset of MPT (FIG. 2C).

[8] = Body weight and heart rate during the infarction/reperfusion experiment; type: in vivo, rat
Protocol: Adult male […] rats (F344 strain, National Institute of Aging, maintained by Harian Sprague-Dawley Inc.), weighting between 285 and 425 gm, were used. Twenty-four rats (n=8/group) were randomly assigned to one of three groups: (1) Control group was given 0.4 ml of saline as an intra-peritoneal (IP) injection 30 minutes before the ligation of left anterior descending coronary artery, followed by same IP dose injection 5 minutes before reperfusion; (2) SS-31 group was treated with SS-31 (3 mg/kg dissolved in 0.4 ml of saline) as an IP injection 30 minutes before the ligation followed by same IP dose injection as maintenance 5 minutes before reperfusion; and (3) SS-20 group was treated with SS-20 (3 mg/kg dissolved in 0.4 ml of saline) as an IP injection 30 minutes before the ligation followed by same dose IP injection as maintenance just 5 minutes before reperfusion. Also, Sham-operated rats (n=3) were used to account for possible effects related to the surgical protocol. All procedures were performed in a blinded manner, with the groups assigned letters and their identities unknown to the operators. Likewise, the two independent investigators analyzing the data were blind to the treatment assignments.
After anesthesia with ketamine (90 mg/kg IP) and xylazine (4 mg/kg IP), a tracheotomy was performed, and the rat was intubated with polyethylene tube and ventilated (Harvard Rodent Ventilator model 683) with room air and a tidal volume of 0.65 ml/100 gm of body weight at 90 breaths per minute. Body temperature was maintained at 37° C. by using a heated operating table. The internal jugular vein was surgically exposed and a polyethylene tube was inserted for Evans blue dye solution injection. Peripheral limb electrodes were inserted subcutaneously and electrocardiogram was monitored throughout the procedure.
An ECG was recorded continuously from a standard lead II (AC AMP 700) inserted into the limbs of all rats. The ECG was printed at 25 mm/second. The cardiac arrhythmias were monitored and assessed in accordance with the Lambeth Convention. The assessment was performed in a blinded manner using the original paper recordings. A validated score was used to quantify the severity of cardiac arrhythmias. The score consisted of six types: 0, no ventricular extrasystoles (VES), ventricular tachycardia (VT) or ventricular fibrillation (VF); 1=VES; 2=one to five episodes of VT (more than four coupled VES); 3=more than five episodes of VT and/or one VF; 4=two to five episodes of VF; 5=more than five episodes of VF.
All values are expressed as mean±standard error of mean (S.E.M.). Statistical analyses were performed using SPSS version 10. Differences among groups in body weight, heart rate, arrhythmia, area at risk as a percentage of the left ventricle, and area of infarction as a percentage of the area at risk were analyzed using ANOVA. If significant differences were detected, comparisons between the control group and the 2 treatment groups were conducted using the Mann-Whitney U-test. A two-tailed p<0.05 was regarded as significant.

Cc1cc(O)cc(C)c1C[C@H](NC(=O)[C@H](N)CCCNC(=N)N)C(=O)N[C@@H](CCCCN)C(=O)N[C@@H](Cc1ccccc1)C(N)=O [SS-31, D-Arg-2′6′Dmt-Lys-Phe-NH2] (H-[dR][Dmt]KF-NH2; N-terminus assumed)
Ca2+-induced release of cytochrome c [1]: same ability to protect
cardiac stunning [2]: complete inhibition of cardiac stunning
coronary flow throughout reperfusion [2]: well-sustained
heart rate [2]: no decrease
myocardial contractile force during ischemia-reperfusion ([2]; 30 min global ischemia): tolerated ischemia much better than buffer-treated hearts; also recorded: protects myocardial contractile force
mitochondrial swelling induced by Ca2+ [3]: same ability to protect; also recorded: inhibited mitochondrial swelling
tBHP-induced loss of mitochondrial potential (TMRM fluorescence) [4]: completely blocked; also recorded: protected
AAR/LV ratio (area at risk relative to left ventricle) [5]: 55.9±1.4%
AI/AAR ratio (area of infarction as percentage of area at risk) [5]: 53.9±1.1%
Severity and occurrence rate of cardiac arrhythmias (score) [6]: 5 points
MPT induced by Ca2+ overload [7]: same ability to protect; also recorded: prevents onset of MPT
Heart Rate Baseline ([8]; Baseline): 257 ± 10
Heart Rate Ischemia ([8]; first column): 184 ± 14
Heart Rate Ischemia ([8]; second column): 169 ± 15
Heart Rate Open chest ([8]; Open chest): 236 ± 8
Heart Rate Reperfusion ([8]; first column): 161 ± 12
Heart Rate Reperfusion ([8]; second column): 164 ± 13
